Measurements published in the NIST ThermoML archive (doi:10.1021/acs.jced.9b00371).
± gives the expanded uncertainty stated by the source.

Details: Liquid, Brillouin light scattering method

CCCCCCCC(=O)OC [methyl octanoate]
Details	speed of sound [m/s]
438.55 K, 100 kPa	775.1 ± 13
438.61 K, 1000 kPa	780.2 ± 13
438.61 K, 10010 kPa	866.1 ± 13
438.81 K, 7000 kPa	838.7 ± 13
438.87 K, 5000 kPa	823.4 ± 13
438.94 K, 3010 kPa	803.1 ± 14
447.87 K, 1010 kPa	754.6 ± 13
447.88 K, 5000 kPa	793.5 ± 14
447.92 K, 7000 kPa	813.8 ± 13
447.96 K, 3010 kPa	776.7 ± 13
447.96 K, 10000 kPa	841 ± 14
448.01 K, 110 kPa	744.4 ± 13
457.92 K, 1000 kPa	724.7 ± 13
458.07 K, 5010 kPa	760.9 ± 13
458.12 K, 7010 kPa	782.2 ± 13
458.17 K, 3000 kPa	744.1 ± 13
458.18 K, 10010 kPa	810.7 ± 13
467.43 K, 10010 kPa	784.5 ± 13
467.58 K, 7010 kPa	759.7 ± 13
467.9 K, 5000 kPa	738.9 ± 13
468.47 K, 1010 kPa	694.8 ± 13
468.68 K, 3000 kPa	713.7 ± 13
476.82 K, 5010 kPa	710.8 ± 13
477 K, 10010 kPa	759.6 ± 13
477.06 K, 1000 kPa	665 ± 13
477.26 K, 7010 kPa	729 ± 13
477.88 K, 3010 kPa	685.8 ± 13
486.8 K, 1000 kPa	631 ± 13
486.87 K, 3000 kPa	654.3 ± 13
486.92 K, 5010 kPa	682 ± 13
486.96 K, 7010 kPa	700 ± 13
487 K, 10010 kPa	738.2 ± 13
498.13 K, 3010 kPa	625.4 ± 13
498.28 K, 7000 kPa	667.5 ± 13
498.28 K, 10000 kPa	705 ± 13
498.41 K, 5000 kPa	644.1 ± 13
498.83 K, 1000 kPa	596.6 ± 13
507.85 K, 1010 kPa	568.9 ± 12
507.87 K, 7000 kPa	646.1 ± 13
507.89 K, 3010 kPa	596.3 ± 13
507.91 K, 5010 kPa	620.4 ± 13
507.91 K, 10000 kPa	680.6 ± 13
517.71 K, 3000 kPa	567.5 ± 13
517.73 K, 1000 kPa	534.7 ± 13
517.79 K, 7000 kPa	619 ± 13
517.81 K, 5000 kPa	594.2 ± 13
518.17 K, 10000 kPa	658.9 ± 13
527.51 K, 7010 kPa	600 ± 13
527.6 K, 1010 kPa	500 ± 12
527.66 K, 3010 kPa	537.5 ± 13
528.05 K, 10000 kPa	631.9 ± 13
528.28 K, 5010 kPa	569.1 ± 12
537.38 K, 1000 kPa	472.9 ± 13
537.57 K, 7000 kPa	569.9 ± 12
537.63 K, 3010 kPa	511.3 ± 13
537.67 K, 5000 kPa	543.3 ± 12
537.72 K, 9990 kPa	609.6 ± 13
547.06 K, 1000 kPa	438.8 ± 13
547.13 K, 5010 kPa	516 ± 13
547.47 K, 10010 kPa	583.9 ± 13
547.67 K, 7000 kPa	544 ± 12
547.87 K, 3000 kPa	480.9 ± 12
557.84 K, 1000 kPa	403.8 ± 12
557.94 K, 5010 kPa	489.3 ± 13
558.16 K, 7000 kPa	515.9 ± 13
558.18 K, 10010 kPa	561.2 ± 13
558.2 K, 3000 kPa	448 ± 12
567.35 K, 1010 kPa	371.2 ± 13
567.7 K, 5000 kPa	461 ± 12
567.81 K, 7000 kPa	495.4 ± 13
567.91 K, 3010 kPa	418.8 ± 12
567.95 K, 10010 kPa	543.8 ± 12
577.4 K, 3010 kPa	389.4 ± 11
577.79 K, 5000 kPa	432.1 ± 12
577.89 K, 7000 kPa	469.8 ± 13
578.16 K, 10000 kPa	522.9 ± 13
587.88 K, 3000 kPa	361.9 ± 11
588.02 K, 5010 kPa	411.1 ± 12
588.47 K, 7010 kPa	450.4 ± 13
597.58 K, 3000 kPa	331.4 ± 10
598.07 K, 7000 kPa	426.9 ± 12
598.29 K, 5010 kPa	384.1 ± 12
608.09 K, 7010 kPa	400.7 ± 12
608.23 K, 5000 kPa	353.7 ± 11
608.38 K, 3000 kPa	294.3 ± 9.5
